# Experimental data taken from patent US7498406B2, “Substantially cell membrane impermeable compound and use thereof” (priority 1999, dated 2009).
# Entries after “also recorded” stand apart in the source; their conditions may differ. Like-named read-outs stand apart in the source and are kept apart here.
# What was measured:
# HIVIIIB = HIVIIIB entry into / infection of A3.01 cells, p24 antigen; type: cell-based, HIV
# Description: FIG. 33. […] Cells were washed and incubated in complete medium at 5% CO2 and 37° C. for up to 10 days. […] B Concentration dependence of GSAO. […] Cells were washed, incubated in complete medium at 5% CO2 and 37° C. for 3 days and the conditioned medium collected and assayed for p24 antigen.
# FIG. 34. Inhibition of HIVIIIB infection of A3.01 cells by GSAO.
# A3.01 human T cells were exposed to GSAO for 30 minutes and then to HTLVIIIB virus for 2 hours after which the cells were washed and then cultured for up to 10 days. HTLVIIIB and A3.01 cells were obtained from the NIH AIDS Research and Reference Reagent Program, Rockville, Mass. Virus stocks were made and infectivity titer determined using A3.01 cells and the p24 antigen assay (Coulter, Miami, Fla.). A3.01 cells were cultured in RPMI medium containing 10% fetal calf serum. […] Cell numbers and cell viability were determined at the times specified by staining cells with trypan blue and counting using a Neubauer haemacytometer. Cell viability was measured as a percentage of live cells to total cells.
# [1] = Binding of GSAO to dithiol, loss of thiols in DTNB assay; conditions: for Kd: errors are 1 SD, read-out: Dissociation Constant
# Description: FIG. 12. Interaction of GSAO with synthetic, peptide and protein dithiols. DMP (A) (15 μM), 6,8-thioctic acid (B) ([…]), dithiothreitol (C) (8.5 μM), TrpCysGlyProCysLys (D) (4.6 μM), TrpCysGlyHisCysLys (E) (5.5 μM) or thioredoxin (F) (4.1 μM corresponding to 20.6 μM thiols) was incubated with GSAO (0-56 μM) for 10 minutes. DTNB (950 μM) was then added and the reactions incubated for a further 10 minutes. The concentration of thiol in the reactions was determined from the absorbance of the TNB dianion at 412 nm. The solid lines represent the best non-linear least squares fit of the data to Equation 1 (A to E) or Equation 2 (F) and have been drawn using the parameter estimates in Table 1. The dotted line in part A represents a simulated titration assuming an infinite affinity of GSAO for the dithiol. GSAO bound to both synthetic, peptide and protein dithiols with dissociation constants in the range 130 nM to 1.4 μM.
# A stock solution of DMP (5 μL, 50 μmol) was dissolved in DMSO (995 μL), giving a concentration of 50 mM DMP, A second dilution of the 50 mM DMP stock solution (10 μL) in pH 7.0 buffer (0.1 M HEPES, 0.3 M NaCl, 1 mM EDTA) (990 μL) gave a working solution of 500 ? M DMP. The activity of the arsenical could then be determined by the titration of varying amounts of arsenical against the DMP working solution (10 μL) in a 96-well microtitre plate, with the total volume made up to 195 μL by addition of buffer. After a 10 minute incubation at room temperature, during which time the solutions were agitated on a plate shaker, 5 μL of a 37.9 mM stock solution of DTNB (15 mg) in DMSO (1 mL) was added, and the plate incubated with shaking for another 10 minutes. The absorbance at 412 nm due to the formation of the TNB dianion was measured using a Molecular Devices Thermomax Plus (Palo Alto, Calif.) microplate reader. The extinction coefficient for the TNB dianion at pH 7.0 is 14, 150 M^−1cm^−1 at 412 nm (Riddles et al., 1983).
# Binding of GSAO to dithiols was measured from loss of thiols using the DTNB assay described above. The dissociation constant, Kd, for GSAO binding to dithiols was determined by incubating increasing concentrations of GSAO, I, with a fixed dithiol concentration, [S]T, and measuring the remaining dithiol using DTNB. Note that the concentration of dithiol equals half the TNB concentration. The concentration of dithiol.GSAO complex, SI, as a function of the total GSAO concentration, [I]T, is described by Equation 1 (Hogg and Jackson, 1990), [SI]=0.5.{([S]T+x.[I]T+Kd)−(([S]T+x.[I]T+Kd)^2−4.[S]T.x.[I]T)^0.5} (1)
# where x is a factor that, when multiplied together with [I]T, will yield the active concentration of GSAO. […]
# HMEC-1 or HUVE cells = assay: GSAO-B labelling of endothelial cell surface proteins; type: cell-based, human; conditions: 100 μM, 30 minutes
# Description: FIG. 16. Identification of endothelial cell surface proteins that contain closely spaced dithiols). A The surface of HMEC-1 or HUVE cells (2×10^6 cells in 0.4 mL) was labelled with GSAO-B (100 μM) for 30 minutes at room temperature in the absence (lanes 1 and 3) or presence of DMP (400 μM) (lane 2). The endothelial cells were lysed and the lysate from both incubations was resolved on 4-15% SDS-PAGE, transferred to PVDF membrane, and blotted with streptavidin peroxidase to detect the GSAO-B label. The results represent labelling of 3×10^4 HMEC-1 (lanes 1 and 2) of HUVE cells (lane 3). The positions of Mr markers are shown at left. B Densitometry profile of the surface labelled proteins (lanes 1 and 3). The apparent Mr's of the individual proteins are indicated.
# Human umbilical vein endothelial cells (HUVEC) (Wall et al., 1978) and the human dermal microvascular endothelial cell line, HMEC-1 (Ades et al., 1992), were harvested and cultured as indicated. Endothelial cells (5×10^6) were detached from culture flasks using 5 mM EDTA in PBS at 37° C., washed 3 times with PBS, resuspended in PBS containing 100 μM of GSAO-B in the absence or presence of 400 μM DMP, and incubated for 30 minutes at room temperature. The cells were washed 3 times with 1 mL of PBS, resuspended in 0.2 mL of ice cold 50 mM Tris/HCl, pH 8 buffer containing 0.5 M NaCl, 1% Triton X-100, 10 μM leupeptin, 2 mM PMSF (Sigma Chemical Company, St, Louis, Mo.), 5 mM EDTA and 10 μM aprotinin (Bayer Australia Ltd., Sydney, NSW), and sonicated on ice. On some occasions the cell lysates were incubated with streptavidin-agarose (Sigma, Castle Hill, NSW) beads (25 μL of packed beads in a total volume of 1 mL) for 60 minutes at 4° C. with rotary mixing. Bound proteins were washed 5 times with 50 mM Tris/HCl, pH 8 buffer containing 0.15 M NaCl and 0.05% Triton X-100, resolved on SDS-PAGE, transferred to PVDF membrane, and the GSAO-B-labeled proteins detected by Western blot.
smiles,measurement,setting,value
"NC(CCC(=O)NC(CSCC(=O)Nc1ccc([As]=O)cc1)C(=O)NCC(=O)O)C(=O)O (centres unmarked) [GSAO, 4-(N-(S-glutathionylacetyl)amino)-phenylarsenoxide]",HIVIIIB infection of A3.01 cells,"HIVIIIB; 10 μM, also in the culture medium",effectively blocked
same,inhibition of HIVIIIB entry,"HIVIIIB; 100 μM, 30 minutes before virus",Inhibition of HIVIIIB entry; also recorded: inhibited entry
same,IC50,"HIVIIIB; Human immunodeficiency virus 1, read-out: half-maximal effect on HIVIIIB entry",~1000 nM
same,interaction with DMP in DTNB titration,"[1]; DMP 15 μM, GSAO 0-50 μM, 10 minutes",bound to DMP and prevented interaction of the dithiol with DTNB
same,Kd,[1]; ring size 5,130 nM
same,Kd,[1]; ring size 6,200 ± 50 nM
same,Kd,[1]; ring size 7,420 nM
same,proteins on the endothelial cell surface that bind the compound,HMEC-1 or HUVE cells,ten distinct proteins
